Measured values published in the supplement of paper PMC10307832.

Key:
Assay in all cases: relative viability (nuclei count vs DMSO), 5 days (fraction); higher = more cells survive
[1] = compound: C1/C(=C\C2=CC=CS2)/C(=O)/C(=C/C3=CC=CS3)/C1 + COc1cccc2cc(-c3nc([C@H]4CC[C@H](C(=O)O)CC4)n4ncnc(N)c34)[nH]c12 [OSI-027] (partner 0.5 µM)
In short: (§1)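 Lung cancer cell lines, seeded in 1536-well plates, were treated the following day by pin tool with a single drug or with five library-drug doses (not always all listed) in √10 steps on top of a fixed anchor-drug dose. Cells were fixed and nuclei stained in one step after 5 days, and nuclei were counted. Relative viability is the nuclei count for treated wells divided by that for vehicle wells, reported as medians of duplicate plates.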

[2] = compound: C1/C(=C\C2=CC=CS2)/C(=O)/C(=C/C3=CC=CS3)/C1 + Cc1nc(Nc2ncc(C(=O)Nc3c(C)cccc3Cl)s2)cc(N2CCN(CCO)CC2)n1 [Dasatinib] (partner 0.075 µM)
In short: as §1

TPCA-1 + Trametinib = compound: C1=CC(=CC=C1C2=CC(=C(S2)NC(=O)N)C(=O)N)F [TPCA-1] + CC(=O)Nc1cccc(-n2c(=O)n(C3CC3)c(=O)c3c(Nc4ccc(I)cc4F)n(C)c(=O)c(C)c32)c1 [Trametinib] (partner 0.02 µM)
In short: as §1

TPCA-1 + Phenformin = compound: C1=CC(=CC=C1C2=CC(=C(S2)NC(=O)N)C(=O)N)F [TPCA-1] + N=C(N)NC(=N)NCCc1ccccc1 [Phenformin] (partner 250 µM)
In short: as §1

Cell Line	relative viability ([1]; first compound 0.2 µM)	relative viability ([1]; first compound 0.6325 µM)	relative viability ([1]; first compound 2 µM)	relative viability ([1]; first compound 6.325 µM)	relative viability ([1]; first compound 20 µM)	relative viability ([2]; first compound 0.2 µM)	relative viability ([2]; first compound 0.6325 µM)	relative viability ([2]; first compound 2 µM)	relative viability ([2]; first compound 6.325 µM)	relative viability ([2]; first compound 20 µM)	relative viability (TPCA-1 + Trametinib; first compound 0.04 µM)	relative viability (TPCA-1 + Trametinib; first compound 0.1265 µM)	relative viability (TPCA-1 + Trametinib; first compound 0.4 µM)	relative viability (TPCA-1 + Trametinib; first compound 1.265 µM)	relative viability (TPCA-1 + Trametinib; first compound 4 µM)	relative viability (TPCA-1 + Phenformin; first compound 0.04 µM)	relative viability (TPCA-1 + Phenformin; first compound 0.1265 µM)	relative viability (TPCA-1 + Phenformin; first compound 0.4 µM)	relative viability (TPCA-1 + Phenformin; first compound 1.265 µM)	relative viability (TPCA-1 + Phenformin; first compound 4 µM)
NCI-H727	0.716	0.58	0.975	0.592	0.582	0.333	0.49	0.447	0.449	0.387	0.393	0.361	0.442	0.421	0.357	0.673	0.417	0.488	0.389	0.479
HARA	0.525	0.437	0.502	0.379	0.57	0.275	0.3	0.338	0.269	0.252	0.8	1.11	0.7	0.63	0.677	0.476	0.45	0.469	0.484	0.162
NCI-H2228	0.62	0.602	0.81	0.521	0.537	0.638	0.479	0.535	0.408	0.531	0.443	0.517	0.671	0.346	0.155	0.396	0.292	0.412	0.285	0.272
LCLC-97TM1	0.503	0.605	0.627	0.428	0.486	0.896	0.776	0.791	0.672	0.811	0.208	0.152	0.163	0.205	0.204	0.44	0.394	0.414	0.294	0.386
LC-2-ad	0.817	0.941	0.984	0.708	0.785	0.667	0.59	0.655	0.482	0.626	0.946	0.941	0.958	0.968	0.765	0.679	0.523	0.607	0.575	0.319
SK-LU-1	0.36	0.388	0.398	0.315	0.396	0.182	0.203	0.189	0.164	0.224	0.532	0.452	0.474	0.396	0.263	0.719	0.461	0.662	0.44	0.238
EKVX	0.679	0.673	0.717	0.615	0.646	0.556	0.433	0.519	–	0.459	0.507	–	0.376	0.216	0.313	0.215	0.22	0.252	0.198	0.125
HCC-827	0.813	0.767	0.809	0.737	0.695	0.405	0.366	0.31	0.265	0.31	0.545	0.545	0.527	0.596	0.421	0.384	0.385	0.404	0.367	0.353
NCI-H650	0.578	0.465	0.591	0.53	0.485	0.462	0.416	0.569	0.446	0.444	1.08	0.857	0.948	0.862	0.813	0.493	0.436	0.466	0.311	0.293
CAL-12T	0.64	0.886	0.709	0.335	0.547	0.513	0.504	0.566	0.341	0.48	0.326	0.331	0.345	0.358	0.254	0.622	0.51	0.612	0.51	0.172
NCI-H2342	0.626	0.644	0.741	0.52	0.607	0.314	0.347	0.352	0.306	0.326	0.792	0.685	0.79	0.829	0.944	0.612	0.538	0.574	0.504	0.47
SW 900	0.63	0.492	0.612	0.531	0.796	0.64	0.773	0.769	0.574	0.671	–	–	0.775	0.909	0.764	0.79	0.577	0.518	0.395	0.529
EPLC-272H	0.349	0.284	0.285	0.238	0.265	0.322	0.332	0.45	0.349	0.311	0.324	0.22	0.329	0.332	0.265	0.343	0.391	0.292	0.289	0.272
A-427	0.481	0.465	0.491	0.445	0.442	0.841	0.721	0.644	0.722	0.708	0.771	0.652	0.875	0.68	0.718	0.423	0.283	0.371	0.19	0.145
NCI-H647	0.624	0.716	0.67	0.391	0.684	0.214	0.145	0.19	0.211	0.16	0.553	0.444	0.47	0.382	0.277	0.557	0.484	0.614	0.38	0.151
NCI-H1975	0.944	0.689	–	0.661	0.739	0.445	0.328	–	0.206	0.387	0.358	0.365	0.392	0.43	0.147	0.445	0.392	0.435	0.405	0.312
